Like-named read-outs stand apart in the source and are kept apart here.
Tests used:
[1] = test system: Haemonchus contortus larvae; assay: Activity against H. contortus, larval development L1 to L3 (LDA); conditions: 5 ppm; 4 days
Description: Twenty L1 Haemonchus contortus larvae were added to wells of a microtitre plate containing a nutrient medium and the test compound in DMSO. The microtitre plate was then held at 27° C. where the L1 larvae were allowed to develop. […] Larvae exposed to DMSO and no test compound served as controls

[2] = test system: Haematobia irritans; assay: whole plant or invertebrate; conditions: 5 μg/cm^2; for mortality at 5 µg/cm2: Haematobia irritans, read-out: Contact SP Horn Fly PCT Mortality (%)
Description: A solution of the test compound was used to treat a filter paper contained within a Petri dish and the filter paper was allowed to evaporate to dryness. A small piece of absorbent cotton moistened with 10% sucrose and ten adult flies (Haematobia irritans or Stomoxys calcitrans) were added to each dish. Dishes were capped and held at room temperature. Assessments were performed at 4 and 24 hours after infestation in comparison with untreated controls.

[3] = test system: microfilaria of Dirofilaria immitis; assay: Activity against D. immitis microfilaria (Mf); conditions: 5 ppm; 5 days
Description: Four hundred to six hundred microfilaria of Dirofilaria immitis were added to wells of a microtitre plate containing RPMI media and the test compound in DMSO. The microtitre plate was then held at 37° C. in an environment containing 5% CO2. An assessment was conducted at 5 days to determine survival of the microfilaria. Microfilaria exposed to DMSO and no test compound served as controls.

[4] = test system: Rhipicephalus sanguineus (Brown Dog Tick); assay: whole plant or invertebrate; conditions: for mortality at 200 ppm: Rhipicephalus sanguineus, read-out: Contact SP Rhicicep PCT Mortality (%); for Contact SP Rhicicep PCT Mortality (%): 200 ppm
From the text: A solution of the test compound was used to coat the inner wall of glass vials and to treat two filter papers. Once dried, one filter paper was placed in the cap of the vial and the other in the bottom of the vial. Each treated vial was infested with 10 adult Rhipicephalus sanguineus (Brown Dog Tick). […]

Row | Compound | LDA SP H. cont. PCT Mot M [1] | mortality at 5 µg/cm2 ([2]; timepoint 4 hrs) | mortality at 5 µg/cm2 ([2]; timepoint 24 hrs) | other results
1 | CC(C)CNC(=O)c1ccc(CCOc2ccc(OC(F)(F)F)cc2)cn1 [Compound 13] | 95% | 60% | 70% | –
2 | O=C(NCC1CCOCC1)c1ccc(CCOc2ccc(OC(F)(F)F)cc2)cn1 [Compound 14] | 100% | 80% | 100% | Mf sp D. immitis PCT Motili [3]: 88%
3 | O=C(NCC1CC1)c1ccc(CCOc2ccc(C(F)(F)F)cc2)cn1 [Compound 207] | 100% | – | – | Contact SP Horn Fly PCT Mortality (%) ([2]; timepoint 4 hrs): 80%; Contact SP Horn Fly PCT Mortality (%) ([2]; timepoint 24 hrs): 80%
4 | CCC(C)CNC(=O)c1ccc(CCOc2ccc(C(F)(F)F)cc2)cn1 (stereo not shown) [Compound 219] | 90% | – | – | mortality at 200 ppm ([4]; timepoint 4 hrs): 80%; mortality at 200 ppm ([4]; timepoint 24 hrs): 90%
5 | CC(C)CNC(=O)c1ccc(CCOc2ccc(Cl)c(OC(F)(F)F)c2)cn1 [Compound 223] | 91% | – | – | Contact SP Rhicicep PCT Mortality (%) ([4]; timepoint 4 hrs): 0%; Contact SP Rhicicep PCT Mortality (%) ([4]; timepoint 24 hrs): 0%
